Test results: patent publication EP4050002A1, “ANTI-PROLIFERATIVE AGENTS” (First Health Pharmaceuticals B.V., priority 2021, dated 2022)

Legend:
H9 = test: Cytotoxicity, cell viability; details: Homo sapiens; H9, 72 hours of incubation, ATP-based method
Experimental: (§1) The anti-tumor activity of the compounds of the present invention was evaluated as the effect on the proliferation and survival of tumor cells by counting the number of living cells in presence or absence of the compounds ("cell count method"), and as the effect on the viability and metabolic activity of the cells, by using particular substrates that are converted by cellular enzymes into coloured or luminescent products, proportionally with metabolic activity and state of the cell, such as the MTS tetrazolium compound ("MTS method") or luciferin ("ATP-based method") respectively.
Cells were seeded at 3 to 5 x 10^4 cells/well density depending on cell lines and maintained at 37°C in 5% CO2. After 24 hours cells were treated with ascending concentrations of the investigational compounds and the reference (5-fluoro-Uracyl) in a range from 0 to 100 µM. […] After 72 h of incubation with compounds, the cells were detached with trypsin and re-suspended in 1 ml of complete medium; the cell number was evaluated using a Z2 Coulter Counter ("cell count method") (Attallah and Johnson, A simple highly sensitive methods for the determination of cell viability using an electronic particle analyzer, Coulter counter J. Immunol. Methods. 1981, 41, 155; Leonardi et al., Activated kinase screening identifies the IKBKE oncogene as a positive regulator of autophagy. Autophagy, 2019, 15, 312). […]

[1] = tested on: Non-small cell lung cancer (cell line A549); test: Subcutaneous xenograft mice model; assay type: in vivo, nude FOXN1nu/nu mice; details: 45 mg/Kg I.P. every Monday, Wednesday and Friday for 5 weeks
Experimental: (§2) Human cancer cell lines were inoculated subcutaneously in nude FOXN1^nu/nu mice (Envigo spa) in both flanks.
(§3) The number of cells inoculated varied between different cell lines: • A549 and A549 Red-FLuc: 5 x 10^6 in medium:matrigel (1:1 v/v) • MDAMB231: 2.8 x 10^6 in medium:matrigel (1:2 v/v)
(§4) When tumors reach the appropriate volume for each cell line, the compounds were administered I.P. every 48 hours, 3 times a week every Monday, Wednesday and Friday for 5 weeks, at a dose selected from the PK study, as follows: • vehicle: 10% DMSO, 5% TWEEN 80 and WFI (85%) • treatment group dose: 45 mg/kg • control group: vehicle only • dose concentration: 12 mg/ml in 10% DMSO, 5% TWEEN 80 and WFI (85%) • volume: 5 ml/kg
(§5) Tumor volume was evaluated twice a week with caliper and calculated with the standard formula (Length ^∗ Height ^∗ Height)/2. Mice were weighed twice a week. Tumor growth is calculated with respect to the first day of treatment (day 0) as ratio between the volume at each day of measurement and day 0.

[2] = tested on: Triple negative breast cancer (cell line MDA-MB-231); test: Subcutaneous xenograft mice model; assay type: in vivo, nude FOXN1nu/nu mice; details: MDA-MB-231 xenograft, 45 mg/Kg I.P. every Monday, Wednesday and Friday for 5 weeks
Experimental: as §2, §3, §4, §5

[3] = tested on: Non-small cell lung cancer engineered with a luciferase reporter (cell line A549 Red-FLuc); test: Subcutaneous xenograft mice model; assay type: in vivo, nude FOXN1nu/nu mice; details: 45 mg/Kg I.P. every Monday, Wednesday and Friday for 5 weeks
Experimental: as §2, §3, §4, §5

MDAMB231 cell line = test: Cytotoxicity, cell count method; assay type: cell-based, human; details: Homo sapiens, MDA-MB-231, MDAMB231, 72 hours of incubation
Experimental: as §1
Cells were seeded at 3 to 5 x 10^4 cells/well density depending on cell lines and maintained at 37°C in 5% CO2. After 24 hours cells were treated with ascending concentrations of the investigational compounds and the reference (5-fluoro-Uracyl) in a range from 0 to 100 µM. Compounds were dissolved in DMSO which final concentration in each well was 0.5% v:v. After 72 h of incubation with compounds, the cells were detached with trypsin and re-suspended in 1 ml of complete medium; the cell number was evaluated using a Z2 Coulter Counter ("cell count method") (Attallah and Johnson, A simple highly sensitive methods for the determination of cell viability using an electronic particle analyzer, Coulter counter J. Immunol. Methods. 1981, 41, 155; Leonardi et al., Activated kinase screening identifies the IKBKE oncogene as a positive regulator of autophagy. Autophagy, 2019, 15, 312). Alternatively, after the 72 hours of incubation with compounds, the MTS solution (CellTiter 96® AQueous One Solution Cell Proliferation Assay) is added to each well and absorbance at 490 nm wavelength is read after 2 hours of incubation ("MTS method"). Results in Tables 8-13, 17, 18 were obtained with the cell count method. Results in Tables 14-15 were obtained with the MTS method. Results in Table 16 were obtained with ATP-based method.

[4] = Tissue distribution after single I.P. administration; assay type: in vivo, male Swiss Albino Mice
Experimental: The pharmacokinetic study was performed in male Swiss albino mice from Hylasco Biotechnology Pvt. Ltd. (A Charles River technology Licensee). The tissue distribution study was performed in male Swiss albino mice and in male FOXN1^nu/nu nude mice (Envigo spa). The efficacy study was performed in male FOXN1^nu/nu nude mice.
Single intraperitoneal administration studies were done as follows: • 1. Compound 5 • dose 1: 45 mg/kg • dose concentration: […] in 10% DMSO, 5% TWEEN 80 and WFI (85%) • volume: 5 ml/kg • blood withdrawal time points: 0.25, 0.5, 1, 2, 4, 6, 8, 24 hours post administration • brain, liver and lungs collected at 4, 8 and 24 hours • 2. Compound 5 • dose 2: 10 mg/kg • dose concentration: 2 mg/ml in 10% DMSO, 10% Solutol and WFI (90%). • volume: 5 ml/kg • blood withdrawal time points: 0.25, 0.5, 1, 2, 4, 6, 8, 24 hours post administration
Selected organs were collected at 4, 8 and 24 hours for drug distribution studies: mice were anesthetized and intra-cardiac whole body perfusion was performed using chilled saline. Separated tissues were immediately washed, dried, weighed and frozen at -80±10°C until homogenization. The levels of compound in the tissues and in plasma were quantified by LC-MS/MS, using as instrument Q-TRAP 500, with a column Phenomenex, KINETEX 5µ EVO C18 50 mm X 4.5 mm (Phenomenex). The mobile phase employed was composed as follows: aqueous reservoir, 10 mM Ammonium Acetate with 0.1% Formic acid in MilliQ water; organic reservoir, Acetonitrile:Methanol (50:50, v/v); flow rate 1 ml/min; injection volume 10µl; rinsing solution, Acetonitrile:Methanol:Water (20:60:20, v/v).
Distribution to tissues is expressed as ratio between the compound level in tissues (ng compounds/ mg tissue) divided by the compound levels in blood (ng/ml), considering 1 ml of blood equal to […].

[5] = 4 hours after single administration I.P. 45 mg/Kg
[6] = 8 hours after single administration I.P. 45 mg/Kg
[7] = 24 hours after single administration I.P. 45 mg/Kg

With `CCCCc1cn(-c2ccc(-c3nnc(-c4ccccc4C(F)(F)F)o3)cc2)nn1` [Compound 5] the IC50 (H9) was 50 µM, the tumor growth [1] was “counteract tumor growth” and the tumor growth [2] was “counteract tumor growth”. For the same compound, the tumor growth [3] was “counteract tumor growth”, the IC50 (MDAMB231 cell line) was 0.58 µM and the Liver to plasma [4, 5] was 11.2. For the same compound, the Plasma [4, 5] was 2171 ng/mL, the Liver to plasma [4, 6] was 9.2 and the Plasma [4, 6] was 775 ng/mL. For the same compound, the Liver to plasma [4, 7] was 9.2, the Plasma [4, 7] was 273 ng/mL and the Kp at 4 h ([4]; mouse, brain, ip, 4 hours after single administration I.P. 45 mg/Kg, read-out: Brain to plasma) was 2.4. For the same compound, the Kp at 8 h ([4]; mouse, brain, ip, 8 hours after single administration I.P. 45 mg/Kg, read-out: Brain to plasma) was 2.1 and the Kp at 24 h ([4]; mouse, brain, ip, 24 hours after single administration I.P. 45 mg/Kg, read-out: Brain to plasma) was 1.75.
